From paper PMC3914891, “Pentacyclic Nitrofurans with In Vivo Efficacy and Activity against Nonreplicating Mycobacterium tuberculosis” (PLoS ONE, 2014)
≈ marks a conversion by molar mass, not a printed value. Where two headings read alike, the source gives them in different places.

Legend:
[1] = tested on: M. avium (ATCC 25291); experiment: MIC, non-tuberculosis mycobacteria: M. avium; format: cell-based; details: Mycobacterium avium, ATCC25291, 168 h; broth dilution, visual inspection, 7 days; read-out: Minimum Inhibitory Concentration, M. avium
[2] = tested on: M. abscessus (ATCC 19977); experiment: MIC, non-tuberculosis mycobacteria: M. abscessus; format: cell-based; details: Mycobacteroides abscessus, ATCC19977, 72 h, read-out: Minimum Inhibitory Concentration, M. abscessus
[3] = tested on: M. fortuitum (ATCC 6841); experiment: MIC, non-tuberculosis mycobacteria: M. fortuitum; format: cell-based; details: Mycolicibacterium fortuitum, ATCC6841, 72 h; broth dilution, visual inspection, 3 days; read-out: Minimum Inhibitory Concentration, M. fortuitum
[4] = tested on: M. kansasii (ATCC 12478); experiment: MIC, non-tuberculosis mycobacteria: M. kansasii; format: cell-based; details: Mycobacterium kansasii, ATCC12478, 168 h; broth dilution, visual inspection, 7 days; read-out: Minimum Inhibitory Concentration, M. kansasii
[5] = tested on: Escherichia coli (ATCC 700926); experiment: MIC, spectrum of activity: E.c.; format: cell-based; details: ATCC700926, read-out: Minimum Inhibitory Concentration, E.c.
[6] = tested on: Stenotrophomonas maltophilia (ATCC 13637); experiment: MIC, spectrum of activity: S.m.; format: cell-based; details: ATCC13637, read-out: Minimum Inhibitory Concentration, S.m.
[7] = male, Sprague-Dawley, rat, in vivo
[8] = rats; IV 10 mg/kg and oral 100 mg/kg
[9] = in vitro; details: mouse, microsomes
[10] = tested on: Streptococcus pyogenes (ATCC 700294); experiment: MIC, spectrum of activity: S.py; format: cell-based; details: ATCC700294, read-out: Minimum Inhibitory Concentration, S. Py.
[11] = tested on: Bacillus subtilis (ATCC 23857); experiment: MIC, spectrum of activity: B.s.; format: cell-based; details: ATCC23857, read-out: Minimum Inhibitory Concentration, B.s.
[12] = In vitro cytotoxicity against Vero cells; details: African green monkey, Vero cells (kidney epithelial cells, ATCC CCL-81)
[13] = tested on: Vero cells; experiment: In vitro cytotoxicity against Vero cells
[14] = in vivo; details: male, Sprague-Dawley, rat
[15] = tested on: Staphylococcus aureus (ATCC 29213); experiment: MIC, spectrum of activity: S.a.; format: cell-based; details: ATCC29213, read-out: Minimum Inhibitory Concentration, S.a
[16] = physchem; details: pH 7.4, aqueous buffer
[17] = in vitro; details: mouse, plasma
[18] = tested on: Streptococcus pneumoniae (R6); experiment: MIC, spectrum of activity: S.pn; format: cell-based; details: read-out: Minimum Inhibitory Concentration, S. Pn.
[19] = tested on: Burkholderia cepacia (ATCC 25416); experiment: MIC, spectrum of activity: B.c.; format: cell-based; details: ATCC25416, read-out: Minimum Inhibitory Concentration, B.c.
[20] = tested on: Staphylococcus aureus (NRS70); experiment: MIC, spectrum of activity: MRSA; format: cell-based; details: read-out: Minimum Inhibitory Concentration, MRSA
[21] = tested on: Enterococcus faecalis (ATCC 33186); experiment: MIC, spectrum of activity: E.f.; format: cell-based; details: ATCC33186, read-out: Minimum Inhibitory Concentration, E.f.
[22] = tested on: Bacillus anthracis sterne 34F2; experiment: microbe, parasite or virus in culture; format: cell-based; details: STERNE34F2, read-out: Minimum Inhibitory Concentration, B.a.
[23] = tested on: M. tuberculosis; experiment: MIC determination, microbroth dilution, M. tuberculosis; format: cell-based, Mycobacterium tuberculosis; details: Mycobacterium tuberculosis
[24] = tested on: E. coli K12 ∆tolC; format: cell-based; details: E. coli K12 ∆tolC (efflux pump deficient)
[25] = tested on: M. tuberculosis strain H37Rv; experiment: Checkerboard synergy assay; format: cell-based, Mycobacterium tuberculosis; details: for MIC: Mycobacterium tuberculosis, H37RV, 168 h, read-out: MIC Alone
[26] = tested on: M. tuberculosis H37Rv; experiment: Minimum bactericidal concentration determination; format: cell-based, Mycobacterium tuberculosis

SMILES | MIC [5] | MIC [6] | half-life [9] | MIC [10] | MIC [11] | IC50 [12] | Selective Index (Cytox/MIC) [13] | MIC [15] | solubility [16] | fraction unbound [17] | MIC [18] | MIC [19] | MIC [20] | MIC [21] | MIC [22] | MIC ([23]; 168 h, read-out: M. tb. MIC) | Minimum Inhibitory Concentration, E.c. ΔtolC [24] | FICI with 9a [25] | MIC in presence of 9a [25] | Type of Interaction [25] | further results
NCC[C@H](O)C(=O)N[C@@H]1C[C@H](N)[C@@H](O[C@H]2O[C@H](CN)[C@@H](O)[C@H](O)[C@H]2O)[C@H](O)[C@H]1O[C@H]1O[C@H](CO)[C@@H](O)[C@H](N)[C@H]1O [Amikacin] | – | – | – | – | – | – | – | – | – | – | – | – | – | – | – | – | – | – | – | – | MIC [1]: 12.5 µg/mL (≈ 21.3 µM); MIC [2]: 3.13 to 6.25 µg/mL (≈ 5.34 to 10.7 µM); MIC [3]: 0.78 µg/mL (≈ 1.33 µM); MIC [4]: 6.25 to 12.5 µg/mL (≈ 10.7 to 21.3 µM)
O=[N+]([O-])c1ccc(C2=NOC(c3ccc(N4CCC(Oc5ccc(OC(F)(F)F)cc5)CC4)nc3)C2)o1 (stereo not shown) [Compound 9b, 3-(5-Nitrofuran-2-yl)-5-(6-(4-(4-(trifluoromethoxy)phenoxy)piperidin-1-yl)pyridin-3-yl)-4,5-dihydroisoxazole] | > 200 µg/mL | 100 µg/mL (≈ 193 µM) | 6.91 h | 200 µg/mL (≈ 386 µM) | > 200 µg/mL | 4 µg/mL (≈ 7.72 µM) | 667 | 200 µg/mL (≈ 386 µM) | 1.6 µg/mL (≈ 3.09 µM) | 0.001 | 200 µg/mL (≈ 386 µM) | 100 µg/mL (≈ 193 µM) | 200 µg/mL (≈ 386 µM) | > 200 µg/mL | 50 µg/mL (≈ 96.4 µM) | 0.006 µg/mL | >200 µg/mL | – | – | – | fe (fraction excreted unchanged in urine) ([7]; iv, 10 mg/kg): 0.01 (0.00) %; Cmin,24 h ([7]; po, 100 mg/kg): 0.11 (0.11) mg/L; Toxicity by intravenous and oral dosing [8]: non-toxic; Vd ([14]; iv, 10 mg/kg): 1.53 L/kg; clearance ([14]; iv, 10 mg/kg): 7 mL/min/kg; half-life ([14]; iv, 10 mg/kg): 2.48 h; AUC(0-inf) ([14]; po, 100 mg/kg): 15100 ng·h/mL; Cmax ([14]; po, 100 mg/kg): 2310 ng/mL; bioavailability ([14]; po, 100 mg/kg): 8%
O=[N+]([O-])c1ccc(C2=NOC(c3ccc(N4CCC(Oc5ccc(F)cc5)CC4)cc3)C2)o1 (stereo not shown) [Compound 9d, 5-(4-(4-(4-Fluorophenoxy)piperidin-1-yl)phenyl)-3-(5-nitrofuran-2-yl)-4,5-dihydroisoxazole] | > 200 µg/mL | 6.3 µg/mL (≈ 14 µM) | 1.43 h | > 200 µg/mL | 100 µg/mL (≈ 222 µM) | 14.7 µg/mL (≈ 32.6 µM) | 1225 | 6.3 µg/mL (≈ 14 µM) | 0.7 µg/mL (≈ 1.55 µM) | 0.009 | > 200 µg/mL | 50 µg/mL (≈ 111 µM) | 100 µg/mL (≈ 222 µM) | > 200 µg/mL | > 200 µg/mL | 0.012 µg/mL | >200 µg/mL | – | – | – | –
O=[N+]([O-])c1ccc(C2=NOC(c3ccc(N4CCC(Oc5ccc(F)cc5)CC4)nc3)C2)o1 (stereo not shown) [Compound 9e, 5-(6-(4-(4-Fluorophenoxy)piperidin-1-yl)pyridin-3-yl)-3-(5-nitrofuran-2-yl)-4,5-dihydroisoxazole] | > 200 µg/mL | 6.3 µg/mL (≈ 13.9 µM) | 1.93 h | > 200 µg/mL | 50 µg/mL (≈ 111 µM) | 7.5 µg/mL (≈ 16.6 µM) | 3750 | > 200 µg/mL | 2.2 µg/mL (≈ 4.86 µM) | 0.002 | > 200 µg/mL | 50 µg/mL (≈ 111 µM) | 50 µg/mL (≈ 111 µM) | 50 µg/mL (≈ 111 µM) | > 200 µg/mL | 0.002 µg/mL | >200 µg/mL | – | – | – | –
O=[N+]([O-])c1ccc(C2=NOC(c3ccc(N4CCC(Oc5ccc(F)cc5)CC4)c(F)c3)C2)o1 (stereo not shown) [Compound 9f, 5-(3-Fluoro-4-(4-(4-fluorophenoxy)piperidin-1-yl)phenyl)-3-(5-nitrofuran-2-yl)-4,5-dihydroisoxazole] | > 200 µg/mL | > 200 µg/mL | 1.74 h | 50 µg/mL (≈ 107 µM) | 25 µg/mL (≈ 53.3 µM) | 8 µg/mL (≈ 17 µM) | 667 | 3.13 µg/mL (≈ 6.67 µM) | 0.8 µg/mL (≈ 1.7 µM) | 0.002 | 25 µg/mL (≈ 53.3 µM) | 12.5 µg/mL (≈ 26.6 µM) | 12.5 µg/mL (≈ 26.6 µM) | 6.3 µg/mL (≈ 13.4 µM) | > 200 µg/mL | 0.012 µg/mL | 12.5 µg/mL | – | – | – | –
CC[C@@H](CO)NCCN[C@@H](CC)CO [Ethambutol] | – | – | – | – | – | – | – | – | – | – | – | – | – | – | – | – | – | 0.75–1.00 | 0.8 µg/mL | Indifference (key: Synergy: synergy (FICI ≤0.5); Indifference: indifference (FICI >0.5–4.0); Antagonism: antagonism (FICI >4.0)) | MIC [25]: 1.6 µg/mL
CC(=O)NC[C@H]1CN(c2ccc(N3CCOCC3)c(F)c2)C(=O)O1 [Linezolid] | – | – | – | – | – | – | – | – | – | – | – | – | – | – | – | – | – | 1.00 | 0.8 µg/mL | Indifference (key: Synergy: synergy (FICI ≤0.5); Indifference: indifference (FICI >0.5–4.0); Antagonism: antagonism (FICI >4.0)) | MIC [25]: 1.6 µg/mL
C[C@]1(COc2ccc(N3CCC(Oc4ccc(OC(F)(F)F)cc4)CC3)cc2)Cn2cc([N+](=O)[O-])nc2O1 [OPC-67683] | – | – | 27.2 h | – | – | 107 µg/mL (≈ 200 µM) | – | – | – | 0.002 | – | – | – | – | – | 0.01 µg/mL | – | – | – | – | MBC [26]: >3; Classification ([26]; cidal or static from MBC versus MIC): Static (static (MBC/MIC >4)); MIC ([23]; M. tuberculosis, […], read-out: MIC): 0.019 µM
[H]/N=C(/N)N[C@H]1[C@H](O)[C@@H](O)[C@H](O[C@@H]2O[C@@H](C)[C@](O)(C=O)[C@H]2O[C@@H]2O[C@@H](CO)[C@H](O)[C@@H](O)[C@@H]2NC)[C@@H](N/C(N)=N\[H])[C@@H]1O [Streptomycin] | – | – | – | – | – | – | – | – | – | – | – | – | – | – | – | – | – | 0.75 | 0.4 to 0.8 µg/mL | Indifference (key: Synergy: synergy (FICI ≤0.5); Indifference: indifference (FICI >0.5–4.0); Antagonism: antagonism (FICI >4.0)) | MIC [25]: 1.6 µg/mL; Classification [26]: Cidal (key: Cidal: cidal (MBC/MIC ≤4); Static: static (MBC/MIC >4)); MBC [26]: 3.13–6.25; MBC/MIC [26]: ≤ 4
